For this assay, the target named is T1, PDGFRA V561D (Homo sapiens, UniProt P16234, V561D).
T1 construct: purchased Thermo Fisher Scientific (Life Technologies) SelectScreen
Nature of the assay: SelectScreen Z'LYTE. The assay is classed as biochemical. The procedure, abridged:
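SelectScreen broad panel; activity (Z'LYTE, Adapta) plus binding formats. ATP: Km app for CSF1R Z'LYTE; 10 for CAMK1 Adapta. Readout = % per kinase.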

T1 sequence (P16234 24-1089 V561D): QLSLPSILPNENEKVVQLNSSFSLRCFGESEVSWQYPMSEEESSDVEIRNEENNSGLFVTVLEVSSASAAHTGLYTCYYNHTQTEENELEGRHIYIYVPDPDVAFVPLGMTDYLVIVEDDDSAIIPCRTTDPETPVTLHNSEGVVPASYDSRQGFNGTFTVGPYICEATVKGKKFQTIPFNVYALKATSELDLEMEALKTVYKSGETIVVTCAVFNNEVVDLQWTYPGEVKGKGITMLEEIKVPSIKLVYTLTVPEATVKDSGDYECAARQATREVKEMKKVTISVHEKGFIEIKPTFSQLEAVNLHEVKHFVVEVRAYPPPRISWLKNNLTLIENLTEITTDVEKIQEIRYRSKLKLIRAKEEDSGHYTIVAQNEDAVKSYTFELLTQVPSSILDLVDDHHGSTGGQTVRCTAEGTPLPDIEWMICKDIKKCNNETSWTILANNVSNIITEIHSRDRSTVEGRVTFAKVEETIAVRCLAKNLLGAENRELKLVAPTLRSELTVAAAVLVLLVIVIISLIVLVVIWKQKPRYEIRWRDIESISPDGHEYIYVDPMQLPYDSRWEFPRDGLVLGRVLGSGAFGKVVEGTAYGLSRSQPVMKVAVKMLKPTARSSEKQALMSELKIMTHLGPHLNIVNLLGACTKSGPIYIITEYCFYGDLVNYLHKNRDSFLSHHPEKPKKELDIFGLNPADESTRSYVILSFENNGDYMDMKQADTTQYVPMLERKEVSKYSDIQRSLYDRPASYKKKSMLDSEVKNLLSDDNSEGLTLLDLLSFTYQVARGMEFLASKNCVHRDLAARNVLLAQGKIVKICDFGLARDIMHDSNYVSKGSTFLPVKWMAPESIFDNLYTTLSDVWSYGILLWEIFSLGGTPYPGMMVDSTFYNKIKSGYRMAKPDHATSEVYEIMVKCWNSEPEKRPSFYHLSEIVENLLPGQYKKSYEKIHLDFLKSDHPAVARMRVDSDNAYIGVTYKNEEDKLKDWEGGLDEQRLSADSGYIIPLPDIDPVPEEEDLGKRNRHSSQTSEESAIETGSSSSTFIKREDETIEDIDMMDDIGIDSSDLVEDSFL

For orientation: inhibition means the drop in the measured response relative to a control, in per cent. On to `CN(C(=O)CN1CCOCC1)c1ccc2sc3c(-c4cccc5c(=O)cc(N6CC7CCC(C6)O7)oc45)cccc3c2c1` [NU5455], for which the inhibition at 1 µM was -2.3%.
